In brackets after ≈: the same amount, converted by molar mass. Where a SMILES comes first, the peptide text is derived from it. Bounds are passed on as bounds.

For data set [1], the system named is Staphylococcus aureus. Briefly: Antibacterial activity against Staphylococcus aureus ATCC 25923 incubated for 18 to 24 hrs by broth microdilution method. It is filed as functional.
Data set [2] deals with Staphylococcus aureus. Briefly: Antibacterial activity against Staphylococcus aureus ATCC 29213 incubated for 18 to 24 hrs by broth microdilution method. It is filed as functional. Background: Dilution methods test growth across graded concentrations, often in twofold steps.
Data set [3] has as its system Salmonella typhimurium. Nature of the data set: Antibacterial activity against Salmonella enterica serovar typhimurium C77-31 incubated for 18 to 24 hrs by broth microdilution method. It is filed as functional, Salmonella enterica subsp. enterica serovar Typhimurium.
Data set [4] relates to Escherichia coli. Briefly: Antibacterial activity against Escherichia coli UB1005 incubated for 18 to 24 hrs by broth microdilution method. In kind it is functional.
Data set [5] concerns Escherichia coli. Nature of the data set: Antibacterial activity against Escherichia coli ATCC 25922 incubated for 18 to 24 hrs by broth microdilution method. In kind it is functional.
Data set [6] relates to Staphylococcus epidermidis. Nature of the data set: Antibacterial activity against Staphylococcus epidermidis ATCC 12228 incubated for 18 to 24 hrs by broth microdilution method. In kind it is functional.
Data set [7] has as its system Erythrocyte. Briefly: Haemolytic activity in human erythrocytes assessed as lowest concentration causing 5% hemolysis after 1 hr. It is filed as ADME, cell-based.
Data set [8] in a line: Therapeutic index, ratio of MHC for human RBC to geometric mean of peptide MIC for Escherichia coli ATCC 25922. In kind it is toxicity. The note with it: pooled result: one value given for 6 cell lines, strains, targets or settings, read-out: TI.
Data set [9] can be described thus: Cytotoxicity against mouse RAW264.7 cells assessed as cell survival at <= 32 uM after 24 hrs by MTT assay relative to control. In kind it is cell-based. To be noted: RAW264.7 cells, up to 32 µM, read-out: Activity. On the technique in general: Tetrazolium dyes change colour on reduction, which living cells bring about.
Data set [10] in a line: Solubility of the compound. In kind it is physicochemical.

In the case of `CC(C)C[C@H](NC(=O)[C@H](CCCNC(=N)N)NC(=O)[C@H](Cc1c[nH]c2ccccc12)NC(=O)[C@H](CCCNC(=N)N)NC(=O)[C@@H](NC(=O)[C@H](Cc1c[nH]c2ccccc12)NC(=O)[C@H](Cc1c[nH]c2ccccc12)NC(=O)[C@H](CCCNC(=N)N)NC(=O)[C@H](CC(C)C)NC(=O)[C@H](Cc1c[nH]c2ccccc12)NC(=O)[C@@H](N)CCCNC(=N)N)[C@@H](C)O)C(=O)N[C@@H](CCCCN)C(N)=O` (H-RWLRWWTRWRLK-NH2), the MIC amounted to 2 µM (≈ 3.68 µg/mL) in [1]; 4 µM (≈ 7.37 µg/mL) in data set [2]; 4 µM (≈ 7.37 µg/mL) in data set [3]; 2 µM (≈ 3.68 µg/mL) in [4]; 4 µM (≈ 7.37 µg/mL) in data set [5]; 4 µM (≈ 7.37 µg/mL) in data set [6]. For the same compound, the MHC in [7] turned out to be 128 µM. The selectivity ratio in [8] turned out to be 40.4. For the same compound, in [9], the viability at 24 h is at least 70%. Also, the solubility result in [10] is “Insoluble”.

In general, MIC refers to the least concentration at which growth counts as inhibited. A higher MIC goes with a less susceptible organism.

These data come from ChEMBL document CHEMBL4311942, “Design of Trp-Rich Dodecapeptides with Broad-Spectrum Antimicrobial Potency and Membrane-Disruptive Mechanism” (J Med Chem, 2019).
